Patent US8071605B2, “Piperidine compounds for use in the treatment of bacterial infections” (AstraZeneca AB, priority 2008, dated 2011)
Values after ≈ are worked out from the molar mass of the structure shown.

test system: Streptococcus pneumoniae; assay: Bacterial susceptibility testing in liquid media (MIC); type: cell-based; settings: against Streptococcus pneumoniae; lowest concentration reducing growth by 80% or more
Text: Compounds may be tested for antimicrobial activity by susceptibility testing in liquid media. Compounds may be dissolved in dimethylsulfoxide and tested in 10 doubling dilutions in the susceptibility assays. The organisms used in the assay may be grown overnight on suitable agar media and then suspended in a liquid medium appropriate for the growth of the organism. The suspension can be a 0.5 McFarland and a further 1 in 10 dilution can be made into the same liquid medium to prepare the final organism suspension in 100 μL. Plates can be incubated under appropriate conditions at 37° C. for 24 hrs prior to reading. The Minimum Inhibitory Concentration (MIC) may be determined as the lowest drug concentration able to reduce growth by 80% or more.

`COCCn1ccnc1-c1nc(N2CC[C@@H](NC(=O)c3[nH]c(C)c(Cl)c3Cl)[C@@H](C)C2)sc1C(=O)O` [Example 23] was tested, and the MIC was 0.78 µg/mL (≈ 1.44 µM).

molecular target: S. aureus GyrB ATPase (Staphylococcus aureus, UniProt P0A0K8); assay: S. aureus GyrB ATPase inhibition (ammonium molybdate/malachite green phosphate detection); type: biochemical; settings: compound concentration of 1 μM (unless otherwise noted)
Outline: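 S. aureus GyrB (250 pM) with E. coli GyrA (250 pM), 250 μM ATP and sheared DNA in pH 7.5 Hepes; phosphate release by malachite green/molybdate at 650 nm. Values are percent inhibition at 1 μM compound unless noted, against 2% DMSO and EDTA controls.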

Sequence of S. aureus GyrB ATPase (P0AES4 whole entry): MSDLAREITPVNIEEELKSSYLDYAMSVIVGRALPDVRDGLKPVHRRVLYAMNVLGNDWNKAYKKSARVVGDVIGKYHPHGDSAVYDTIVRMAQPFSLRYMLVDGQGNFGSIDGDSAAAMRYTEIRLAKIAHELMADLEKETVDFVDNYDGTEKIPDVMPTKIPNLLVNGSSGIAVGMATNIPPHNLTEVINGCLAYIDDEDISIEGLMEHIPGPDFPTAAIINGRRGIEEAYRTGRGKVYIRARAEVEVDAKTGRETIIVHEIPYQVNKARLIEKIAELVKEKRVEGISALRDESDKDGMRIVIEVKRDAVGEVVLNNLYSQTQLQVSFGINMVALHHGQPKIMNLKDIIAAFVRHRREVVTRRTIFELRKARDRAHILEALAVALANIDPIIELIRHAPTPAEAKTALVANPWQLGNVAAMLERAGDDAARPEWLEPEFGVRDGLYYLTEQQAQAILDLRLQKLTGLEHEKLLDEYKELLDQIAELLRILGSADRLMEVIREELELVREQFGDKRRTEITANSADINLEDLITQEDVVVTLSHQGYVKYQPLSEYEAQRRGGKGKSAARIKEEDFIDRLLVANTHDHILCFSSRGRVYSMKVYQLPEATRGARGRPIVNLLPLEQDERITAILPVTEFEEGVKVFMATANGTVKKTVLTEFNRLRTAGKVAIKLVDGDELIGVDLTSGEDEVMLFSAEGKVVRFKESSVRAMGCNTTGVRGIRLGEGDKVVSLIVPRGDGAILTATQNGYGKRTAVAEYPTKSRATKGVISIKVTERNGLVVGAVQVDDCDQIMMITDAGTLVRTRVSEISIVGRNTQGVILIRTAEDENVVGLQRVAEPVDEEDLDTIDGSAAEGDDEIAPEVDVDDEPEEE
Sequence of S. aureus GyrB ATPase (P0A0K8 whole entry): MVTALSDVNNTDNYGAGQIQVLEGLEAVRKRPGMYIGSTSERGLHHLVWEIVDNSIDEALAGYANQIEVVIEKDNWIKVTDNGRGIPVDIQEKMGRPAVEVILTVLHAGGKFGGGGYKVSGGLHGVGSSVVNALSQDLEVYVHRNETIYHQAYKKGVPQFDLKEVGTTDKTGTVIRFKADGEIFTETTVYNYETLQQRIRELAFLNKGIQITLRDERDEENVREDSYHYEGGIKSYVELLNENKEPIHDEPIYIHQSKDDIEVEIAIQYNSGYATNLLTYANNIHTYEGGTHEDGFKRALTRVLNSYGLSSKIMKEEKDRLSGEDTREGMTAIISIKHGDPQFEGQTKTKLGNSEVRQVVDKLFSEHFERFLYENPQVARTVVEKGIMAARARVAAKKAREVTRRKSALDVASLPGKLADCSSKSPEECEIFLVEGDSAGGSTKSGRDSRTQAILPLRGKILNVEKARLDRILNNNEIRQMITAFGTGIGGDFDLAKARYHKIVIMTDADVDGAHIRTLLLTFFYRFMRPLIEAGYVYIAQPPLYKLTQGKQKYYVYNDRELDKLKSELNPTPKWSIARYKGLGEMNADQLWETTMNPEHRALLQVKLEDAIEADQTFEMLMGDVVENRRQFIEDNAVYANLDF

First: COCCn1ccnc1-c1nc(N2CC[C@@H](NC(=O)c3[nH]c(C)c(Cl)c3Cl)[C@@H](C)C2)sc1C(=O)O [Example 23]
Second: CCCO[C@H]1CN(c2nc(-c3nccn3CCOC)c(C(=O)O)s2)CC[C@H]1NC(=O)c1[nH]c(C)c(Cl)c1Cl [Example 216, 2-[(3S,4R)-4-{[(3,4-dichloro-5-methyl-1H-pyrrol-2-yl)carbonyl]amino}-3-propoxypiperidin-1-yl]-4-[1-(2-methoxyethyl)-1H-imidazol-2-yl]-1,3-thiazole-5-carboxylic acid]
The inhibition at 1 µM of the first is lower: 100% for the first, 109% for the second.

Compared with `CO[C@H]1CN(c2nc(-c3nccc(N4CCN(C)CC4)n3)c(C(=O)O)s2)CC[C@H]1NC(=O)c1[nH]c(C)c(Cl)c1Cl` [Example 191, 2-[(3S,4R)-4-{[(3,4-dichloro-5-methyl-1H-pyrrol-2-yl)carbonyl]amino}-3-methoxypiperidin-1-yl]-4-[4-(4-methylpiperazin-1-yl)pyrimidin-2-yl]-1,3-thiazole-5-carboxylic acid], `CCN1CCN(c2ccnc(-c3nc(N4CC[C@@H](NC(=O)c5[nH]c(C)c(Cl)c5Cl)[C@@H](OC)C4)sc3C(=O)O)n2)CC1` [Example 193, 2-[(3S,4R)-4-{[(3,4-dichloro-5-methyl-1H-pyrrol-2-yl)carbonyl]amino}-3-methoxypiperidin-1-yl]-4-[4-(4-ethylpiperazin-1-yl)pyrimidin-2-yl]-1,3-thiazole-5-carboxylic acid] is higher in inhibition at 1 µM: 102% for the first, 109% for the second.

Going from `CO[C@H]1CN(c2nc(-c3nccc(N4CCN(CC(C)C)CC4)n3)c(C(=O)O)s2)CC[C@H]1NC(=O)c1[nH]c(C)c(Cl)c1Cl` [Example 192, 2-[(3S,4R)-4-{[(3,4-dichloro-5-methyl-1H-pyrrol-2-yl)carbonyl]amino}-3-methoxypiperidin-1-yl]-4-{4-[4-(2-methylpropyl)piperazin-1-yl]pyrimidin-2-yl}-1,3-thiazole-5-carboxylic acid] to `CO[C@H]1CN(c2nc(-c3cnc(NCC4CN5CCN4CC5)cn3)c(C(=O)O)s2)CC[C@H]1NC(=O)c1[nH]c(C)c(Cl)c1Cl` (stereo partly drawn) [Example 195, 4-{5-[(1,4-diazabicyclo[2.2.2]oct-2-ylmethyl)amino]pyrazin-2-yl}-2-[(3S,4R)-4-{[(3,4-dichloro-5-methyl-1H-pyrrol-2-yl)carbonyl]amino}-3-methoxypiperidin-1-yl]-1,3-thiazole-5-carboxylic acid], the inhibition at 1 µM rises from 108% to 118%.

`CCCO[C@H]1CN(c2nc(-c3ncnn3C)c(C(=O)O)s2)CC[C@H]1NC(=O)c1cc(Cl)c(C)[nH]1` [Example 200, 2-[(3S,4R)-4-{[(4-chloro-5-methyl-1H-pyrrol-2-yl)carbonyl]amino}-3-propoxypiperidin-1-yl]-4-(1-methyl-1H-1,2,4-triazol-5-yl)-1,3-thiazole-5-carboxylic acid] and `CCCO[C@H]1CN(c2nc(-c3ncnn3C)c(C(=O)O)s2)CC[C@H]1NC(=O)c1[nH]c(C)c(Cl)c1Cl` [Example 215] are the same in inhibition at 1 µM: 106% for the first, 106% for the second.

`CCCO[C@H]1CN(c2nc(-c3nccn3CCOC)c(C(=O)O)s2)CC[C@H]1NC(=O)c1cc(Cl)c(C)[nH]1` [Example 201, 2-[(3S,4R)-4-{[(4-chloro-5-methyl-1H-pyrrol-2-yl)carbonyl]amino}-3-propoxypiperidin-1-yl]-4-[1-(2-methoxyethyl)-1H-imidazol-2-yl]-1,3-thiazole-5-carboxylic acid] and `CCCO[C@H]1CN(c2nc(-c3nccn3CCOC)c(C(=O)O)s2)CC[C@H]1NC(=O)c1[nH]c(C)c(Cl)c1C#N` [Example 209, 2-[(3S,4R)-4-{[(4-chloro-3-cyano-5-methyl-1H-pyrrol-2-yl)carbonyl]amino}-3-propoxypiperidin-1-yl]-4-[1-(2-methoxyethyl)-1H-imidazol-2-yl]-1,3-thiazole-5-carboxylic acid] are the same in inhibition at 1 µM: 105% for the first, 105% for the second.

Going from `CCCO[C@H]1CN(c2nc(-c3ncccc3F)c(C(=O)O)s2)CC[C@H]1NC(=O)c1cc(Cl)c(C)[nH]1` [Example 202, 2-[(3S,4R)-4-{[(4-chloro-5-methyl-1H-pyrrol-2-yl)carbonyl]amino}-3-propoxypiperidin-1-yl]-4-(3-fluoropyridin-2-yl)-1,3-thiazole-5-carboxylic acid] to `CCCO[C@H]1CN(c2nc(-c3ncccc3F)c(C(=O)O)s2)CC[C@H]1NC(=O)c1[nH]c(C)c(Cl)c1Cl` [Example 217, 2-[(3S,4R)-4-{[(3,4-dichloro-5-methyl-1H-pyrrol-2-yl)carbonyl]amino}-3-propoxypiperidin-1-yl]-4-(3-fluoropyridin-2-yl)-1,3-thiazole-5-carboxylic acid], the inhibition at 1 µM rises from 103% to 113%.

Going from `CCCO[C@H]1CN(c2nc(-c3cnccn3)c(C(=O)O)s2)CC[C@H]1NC(=O)c1cc(Cl)c(C)[nH]1` [Example 203, 2-[(3S,4R)-4-{[(4-chloro-5-methyl-1H-pyrrol-2-yl)carbonyl]amino}-3-propoxypiperidin-1-yl]-4-(pyrazin-2-yl)-1,3-thiazole-5-carboxylic acid] to `CCCO[C@H]1CN(c2nc(-c3cnccn3)c(C(=O)O)s2)CC[C@H]1NC(=O)c1[nH]c(C)c(Cl)c1C#N` [Example 211, 2-[(3S,4R)-4-{[(4-chloro-3-cyano-5-methyl-1H-pyrrol-2-yl)carbonyl]amino}-3-propoxypiperidin-1-yl]-4-(pyrazin-2-yl)-1,3-thiazole-5-carboxylic acid], the inhibition at 1 µM falls from 108% to 107%.

First: CCCO[C@H]1CN(c2nc(-c3ncnn3C)c(C(=O)O)s2)CC[C@H]1NC(=O)c1[nH]c(C)c(Cl)c1C#N [Example 208, 2-[(3S,4R)-4-{[(4-chloro-3-cyano-5-methyl-1H-pyrrol-2-yl)carbonyl]amino}-3-propoxypiperidin-1-yl]-4-(1-methyl-1H-1,2,4-triazol-5-yl)-1,3-thiazole-5-carboxylic acid]
Second: CCCO[C@H]1CN(c2nc(-c3ncccc3F)c(C(=O)O)s2)CC[C@H]1NC(=O)c1[nH]c(C)c(Cl)c1C#N [Example 210, 2-[(3S,4R)-4-{[(4-chloro-3-cyano-5-methyl-1H-pyrrol-2-yl)carbonyl]amino}-3-propoxypiperidin-1-yl]-4-(3-fluoropyridin-2-yl)-1,3-thiazole-5-carboxylic acid]
The inhibition at 1 µM of the first is lower: 108% for the first, 109% for the second.
